Test results: the supplement of paper PMC13380429

What was measured:
Conditions in all cases: 72 h
Caco-2 [1] = experiment: cell viability relative to DMSO; higher = less toxic
U2OS [2] = experiment: as above
Vero E6 [3] = experiment: as above
HepG2 [4] = experiment: as above
Caco-2 [5] = experiment: relative viability EC50 (midpoint between 100% and the lowest measured viability); higher = less toxic
U2OS [6] = experiment: as above
Vero E6 [7] = experiment: as above
HepG2 [8] = experiment: as above
Caco-2 [9] = experiment: drug sensitivity score (DSS) for viability; higher = more toxic; extreme values may be limits of the assay
U2OS [10] = experiment: as above
Vero E6 [11] = experiment: as above
HepG2 [12] = experiment: as above
Calu-3 [13] = experiment: cell viability relative to DMSO; higher = less toxic
Calu-3 [14] = experiment: relative viability EC50 (midpoint between 100% and the lowest measured viability); higher = less toxic
Calu-3 [15] = experiment: drug sensitivity score (DSS) for viability; higher = more toxic; extreme values may be limits of the assay

Row | SMILES | cell viability (Caco-2 [1]; 1 nM) | cell viability (Caco-2 [1]; 10 nM) | cell viability (Caco-2 [1]; 100 nM) | cell viability (Caco-2 [1]; 1000 nM) | cell viability (Caco-2 [1]; 10000 nM) | cell viability (U2OS [2]; 1 nM) | cell viability (U2OS [2]; 10 nM) | cell viability (U2OS [2]; 100 nM) | cell viability (U2OS [2]; 1000 nM) | cell viability (U2OS [2]; 10000 nM) | cell viability (Vero E6 [3]; 1 nM) | cell viability (Vero E6 [3]; 10 nM) | cell viability (Vero E6 [3]; 100 nM) | cell viability (Vero E6 [3]; 1000 nM) | cell viability (Vero E6 [3]; 10000 nM) | cell viability (HepG2 [4]; 1 nM) | cell viability (HepG2 [4]; 10 nM) | cell viability (HepG2 [4]; 100 nM) | cell viability (HepG2 [4]; 1000 nM) | cell viability (HepG2 [4]; 10000 nM) | relative viability EC50 (Caco-2 [5]) | relative viability EC50 (U2OS [6]) | relative viability EC50 (Vero E6 [7]) | relative viability EC50 (HepG2 [8]) | drug sensitivity score (Caco-2 [9]) | drug sensitivity score (U2OS [10]) | drug sensitivity score (Vero E6 [11]) | drug sensitivity score (HepG2 [12]) | cell viability (Calu-3 [13]; 1 nM) | cell viability (Calu-3 [13]; 10 nM) | cell viability (Calu-3 [13]; 100 nM) | cell viability (Calu-3 [13]; 1000 nM) | cell viability (Calu-3 [13]; 10000 nM) | relative viability EC50 (Calu-3 [14]) | drug sensitivity score (Calu-3 [15])
1 | O=C(COc1ccc(C(=O)c2ccccc2)cc1)NC1CCN(Cc2ccccc2)CC1 [adiporon] | 95.2% | 92.7% | 99% | 91.6% | 91.9% | 96.4% | 93.2% | 100% | 98.1% | 95.7% | 97.1% | 98.2% | 93.8% | 96.9% | 101% | 92.1% | 94.3% | 94.8% | 107% | 85.4% | > 10 µM | > 10 µM | > 10 µM | > 10 µM | 0 | 0 | 0 | 0 | – | – | – | – | – | – | –
2 | CN(C)c1ccc2c(c1)Sc1cc(N(C)C)ccc1N2 [leucomethylene-blue] | 95.2% | 99% | 102% | 94.1% | 23.1% | 99.5% | 94.1% | 97.2% | 99.6% | 56.9% | 95.8% | 97.1% | 93.9% | 85.2% | 45.9% | 93.1% | 93.2% | 93.6% | 76.4% | 7.7% | 2.54 µM | – | 1.55 µM | 1.53 µM | 5.2 | 2.2 | 4.9 | 8.7 | 101% | 102% | 102% | 109% | 9% | 3.65 µM | 4.4
3 | COc1cc(NC(=O)c2ccccn2)ccc1Cl | 100% | 94.5% | 95.3% | 90.8% | 92.3% | 100% | 95.3% | 101% | 99.4% | 96.3% | 101% | 99% | 96.3% | 102% | 95.3% | 92.9% | 99.2% | 91% | 102% | 94.9% | > 10 µM | > 10 µM | > 10 µM | > 10 µM | 0 | 0 | 0 | 0 | – | – | – | – | – | – | –
4 | CC(C)(C)C(=O)C(Oc1ccc(Cl)cc1)n1ccnc1 (stereo not drawn) [climbazole] | 108% | 100% | 104% | 97% | 98.2% | – | – | – | – | – | 96.6% | 101% | 98.1% | 92.2% | 97.1% | 113% | 104% | 93.8% | 107% | 102% | > 10 µM | – | > 10 µM | > 10 µM | 0 | – | 0 | 0 | 94.5% | 102% | 98.3% | 94.7% | 101% | > 10 µM | 0
5 | C[C@@H]1C/C=C/C=C/C=C/C=C/[C@H](O[C@@H]2O[C@H](C)[C@@H](O)[C@H](N)[C@@H]2O)C[C@@H]2O[C@](O)(C[C@@H](O)C[C@H]3O[C@@H]3/C=C/C(=O)O1)C[C@H](O)[C@H]2C(=O)O [natamycin] | 90.9% | 103% | 95.3% | 97.1% | 107% | 95.9% | 97.5% | 94.3% | 102% | 108% | 95.7% | 96.6% | 93.3% | 88.7% | 105% | 89.7% | 91.6% | 92.5% | 93.3% | 94.8% | > 10 µM | > 10 µM | > 10 µM | > 10 µM | 0 | 0 | 0 | 0 | – | – | – | – | – | – | –
6 | OC(CCCN1CCCCC1)(c1ccccc1)c1ccccc1 [diphenidol] | 90.3% | 93.3% | 90.5% | 102% | 87.8% | 104% | 98.9% | 103% | 99.5% | 100% | – | – | – | – | – | 96.1% | 101% | 102% | 109% | 105% | > 10 µM | > 10 µM | – | > 10 µM | 0 | 0 | – | 0 | 120% | 104% | 97.8% | 106% | 98.6% | > 10 µM | 0
7 | Fc1ccccc1CNCc1ccc(-c2ccnc3[nH]ccc23)cc1 [OXA-06] | 91.3% | 103% | 91.5% | 101% | 90.2% | 98.6% | 102% | 96.8% | 97.2% | 69.8% | 103% | 95.6% | 97.3% | 97.6% | 85.4% | 105% | 90.4% | 108% | 107% | 86.9% | > 10 µM | – | > 10 µM | > 10 µM | 0 | 1.8 | 0.4 | 0 | 111% | 106% | 100% | 139% | 139% | > 10 µM | 0
8 | C[C@@H](CN1CCC(n2c(=O)[nH]c3cc(Cl)ccc32)CC1)NC(=O)c1ccc2ccccc2c1 | 93.8% | 105% | 101% | 97.4% | 79.5% | 106% | 102% | 100% | 98.1% | 91.1% | – | – | – | – | – | 99.9% | 102% | 85.6% | 94.1% | 82.9% | > 10 µM | > 10 µM | – | > 10 µM | 1 | 0 | – | 0.9 | 102% | 99.7% | 96.2% | 94.2% | 82.1% | > 10 µM | 0.7
9 | COc1cc(OC)cc(N(CCNC(C)C)c2ccc3ncc(-c4cnn(C)c4)nc3c2)c1 [erdafitinib] | 90.1% | 99.3% | 94% | 99.3% | 65.2% | 101% | 97.3% | 91.5% | 84% | 53.1% | 94% | 99% | 92% | 98.9% | 35.9% | 101% | 111% | 104% | 99.4% | 39.2% | – | – | 3.04 µM | 3.09 µM | 1.7 | 4.1 | 3.6 | 3.4 | 109% | 90.2% | 92.3% | 89.6% | 81.4% | > 10 µM | 1.3
10 | N=C(N)NCCC[C@H](NC(=O)[C@@H]1CCCN1C(=O)[C@@H]1CSSC[C@H](N)C(=O)N[C@@H](Cc2ccc(O)cc2)C(=O)N[C@@H](Cc2ccccc2)C(=O)N[C@@H](CCC(N)=O)C(=O)N[C@@H](CC(N)=O)C(=O)N1)C(=O)NCC(N)=O [vasopressin] | 94.8% | 93% | 88% | 87.5% | 99.2% | 102% | 97.2% | 99.8% | 97.8% | 98% | 101% | 99.1% | 98.1% | 94% | 99.1% | 101% | 98% | 86.3% | 92.3% | 99.5% | > 10 µM | > 10 µM | > 10 µM | > 10 µM | 0 | 0 | 0 | 0 | – | – | – | – | – | – | –
11 | Oc1c(CN2CCCC2)cc(COCc2ccccc2)c2cccnc12 [UC-112] | 92.2% | 95.9% | 99.1% | 73% | 3.6% | 97.6% | 91.1% | 94% | 88.9% | 43.1% | 97.8% | 95.3% | 94% | 51.7% | 6.8% | 97.5% | 94.5% | 96.2% | 81.6% | 16.6% | 1.46 µM | 1.76 µM | 0.927 µM | 1.66 µM | 9.4 | 4.9 | 10.9 | 7.5 | 97.7% | 94.8% | 108% | 107% | 69.5% | – | 1
12 | C[C@H](Nc1cc2c(-c3ccc4c(c3)OCO4)noc2cn1)c1ccccc1 [TC-S-7005] | 96.5% | 105% | 107% | 101% | 97.9% | – | – | – | – | – | 97.4% | 96.2% | 98.8% | 90.5% | 108% | 106% | 120% | 100% | 91.6% | 99% | > 10 µM | – | > 10 µM | > 10 µM | 0 | – | 0 | 0 | 106% | 98% | 105% | 97.2% | 107% | > 10 µM | 0
13 | O=C(O)c1cc(Oc2ccc([N+](=O)[O-])cc2)cc(Oc2ccc([N+](=O)[O-])cc2)c1 [compound-w] | – | – | – | – | – | – | – | – | – | – | – | – | – | – | – | 106% | 98.9% | 102% | 104% | 108% | – | – | – | > 10 µM | – | – | – | 0 | 107% | 104% | 105% | 96.9% | 94.6% | > 10 µM | 0
